System: Target oligonucleotides (SEQ ID NO:33-36)
Test: Affinity PAGE capture of target DNA and RNA oligonucleotides, detection with ethidium bromide
Assay type: binding
Conditions: electrophoresis at 40° C.
From the text: A HypNA-pPNA capture probe with the sequence: (Ch-Tp-Gh-Cp-Ah-Ap-Ah-Gp-Gh-Ap-Ch-Ap-Ch-Cp-Ah-Tp)-dG was synthesized coupled to a 5′ acrylamide residue as described in Example 19. The capture probe was co-polymerized with acrylamide as described in Example 18 in slots of an acrylamide gel as described in Rehman et al. (Nucleic Acids Research 27: 649-655 (1999)). Target oligonucleotides having the sequence: • d([…]) (SEQ ID NO:33)—complementary • d([…]) (SEQ ID NO:34)—mismatched • r([…]) (SEQ ID NO:35)—complementary • r([…]) (SEQ ID NO:36)—mismatched were electrophoresed through lanes of the gel at 40° C.
Following electrophoresis, the gel was stained with ethidium bromide and photographed under UV illumination.

## (Ch-Tp-Gh-Cp-Ah-Ap-Ah-Gp-Gh-Ap-Ch-Ap-Ch-Cp-Ah-Tp)-dG [capture HypNA-pPNA probe]
Complementary DNA and RNA targets, lanes 1, 3, and 5
  capture of complementary target oligonucleotides in the gel (ethidium bromide fluorescence): ethidium-stained fluorescent hybrids captured by the gel layer
Single nucleobase mismatched DNA and RNA targets, lanes 2, 4, and 6
  capture of mismatched target oligonucleotides in the gel (ethidium bromide fluorescence): did not result in the capture of a target

Source: patent US6962906B2, “Oligonucleotide analogues, methods of synthesis and methods of use” (Active Motif, priority 2000, dated 2005)
